Test results: ChEMBL document CHEMBL1909046, “DrugMatrix in vitro pharmacology data”

Columns and labels:
[1] = target: T1, Alpha-1D adrenergic receptor (Homo sapiens, UniProt P25100); type: cell membranes, HEK293, Membrane; details: for Ki: read-out: Ki; as to all read-outs here: in other assays of this panel Not Active means under 50% inhibition at 10 µM
T1 sequence (P25100 whole entry): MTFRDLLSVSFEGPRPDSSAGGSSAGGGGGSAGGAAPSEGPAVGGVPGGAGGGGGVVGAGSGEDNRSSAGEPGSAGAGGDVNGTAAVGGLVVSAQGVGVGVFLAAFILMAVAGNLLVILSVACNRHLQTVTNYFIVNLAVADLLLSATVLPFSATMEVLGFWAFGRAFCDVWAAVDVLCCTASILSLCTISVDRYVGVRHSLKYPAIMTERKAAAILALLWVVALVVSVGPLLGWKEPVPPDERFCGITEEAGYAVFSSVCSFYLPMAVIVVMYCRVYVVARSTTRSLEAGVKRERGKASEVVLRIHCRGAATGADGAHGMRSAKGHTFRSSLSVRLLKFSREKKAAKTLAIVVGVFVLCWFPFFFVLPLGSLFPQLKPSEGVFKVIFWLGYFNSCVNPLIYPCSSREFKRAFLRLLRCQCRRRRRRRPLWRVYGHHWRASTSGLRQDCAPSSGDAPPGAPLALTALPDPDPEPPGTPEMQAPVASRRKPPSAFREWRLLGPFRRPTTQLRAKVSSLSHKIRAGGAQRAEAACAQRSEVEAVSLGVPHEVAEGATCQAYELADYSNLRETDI

[2] = target: T2, Muscarinic acetylcholine receptor M2 (Homo sapiens, UniProt P08172); type: cell membranes, CHO-K1, Membrane; also: in other assays of this panel Not Active means under 50% inhibition at 10 µM
T2 sequence (P08172 whole entry): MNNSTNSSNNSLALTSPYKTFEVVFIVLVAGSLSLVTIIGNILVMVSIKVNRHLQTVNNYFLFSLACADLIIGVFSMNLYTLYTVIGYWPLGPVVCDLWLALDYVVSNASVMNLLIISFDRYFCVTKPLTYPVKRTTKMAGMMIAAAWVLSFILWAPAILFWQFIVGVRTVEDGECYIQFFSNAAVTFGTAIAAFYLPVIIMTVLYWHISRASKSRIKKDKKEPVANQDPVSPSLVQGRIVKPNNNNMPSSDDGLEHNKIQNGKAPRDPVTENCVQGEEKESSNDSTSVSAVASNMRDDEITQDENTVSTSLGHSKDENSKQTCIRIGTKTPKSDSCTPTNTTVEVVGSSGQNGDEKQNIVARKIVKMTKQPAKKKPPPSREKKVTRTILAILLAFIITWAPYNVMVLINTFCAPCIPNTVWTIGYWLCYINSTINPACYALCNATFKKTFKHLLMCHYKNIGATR

[3] = DRUGMATRIX: Potassium Channel [KATP] radioligand binding (ligand: [3H] Glyburide); type: cell membranes, Membrane; details: hit-t15; Not Active = under 50% inhibition at 10 µM
[4] = DRUGMATRIX: Imidazoline I2, Central radioligand binding (ligand: [3H] Idazoxan); type: cell membranes, Rattus norvegicus, Wistar, Cerebral cortex, Membrane; details: Not Active = under 50% inhibition at 10 µM
[5] = target: D(3) dopamine receptor (Homo sapiens, UniProt P35462); test: DRUGMATRIX: Dopamine D3 radioligand binding (ligand: [3H] Spiperone); type: cell membranes, CHO, Membrane; details: for Ki: read-out: Ki
Sequence of D(3) dopamine receptor (P35462 whole entry): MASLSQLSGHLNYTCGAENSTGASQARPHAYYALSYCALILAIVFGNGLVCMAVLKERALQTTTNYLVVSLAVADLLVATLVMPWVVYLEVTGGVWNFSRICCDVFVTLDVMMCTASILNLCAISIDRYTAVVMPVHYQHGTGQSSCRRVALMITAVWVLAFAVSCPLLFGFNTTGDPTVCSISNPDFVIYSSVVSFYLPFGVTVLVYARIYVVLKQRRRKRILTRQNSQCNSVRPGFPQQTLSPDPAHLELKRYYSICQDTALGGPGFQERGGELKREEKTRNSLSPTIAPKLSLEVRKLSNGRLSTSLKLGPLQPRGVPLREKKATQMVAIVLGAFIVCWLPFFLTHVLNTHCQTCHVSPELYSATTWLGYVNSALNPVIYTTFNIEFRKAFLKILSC

Structure (SMILES)	IC50 ([1]; hek293)	IC50 ([2]; cho-k1)	IC50 [3]	Ki [3]	IC50 [4]	Ki [4]	IC50 ([5]; cho)	IC50 ([5]; read-out: IC50) [nM]	Ki [5] [nM]	IC50 ([4]; read-out: IC50) [nM]	Ki ([4]; read-out: Ki) [nM]	IC50 ([1]; read-out: IC50) [nM]	Ki [1] [nM]	IC50 ([2]; read-out: IC50) [nM]	Ki ([2]; read-out: Ki) [nM]
CC(C)(C)NC(=O)[C@@H]1C[C@@H]2CCCC[C@@H]2CN1C[C@@H](O)[C@H](Cc1ccccc1)NC(=O)[C@H](CC(N)=O)NC(=O)c1ccc2ccccc2n1	Not Active	Not Active	Not Active	Not Active	Not Active	Not Active									
CC(=O)[C@@]1(O)CC[C@H]2[C@@H]3C[C@H](C)C4=CC(=O)CC[C@]4(C)[C@H]3CC[C@@]21C	Not Active	Not Active	Not Active	Not Active	Not Active	Not Active	Not Active								
N[C@@H](Cc1ccc(N(CCCl)CCCl)cc1)C(=O)O	Not Active	Not Active	Not Active	Not Active	Not Active	Not Active	Not Active								
CCCCc1oc2ccccc2c1C(=O)c1cc(I)c(OCCN(CC)CC)c(I)c1 [AMIODARONE]	Not Active														
OCCN(CCO)c1nc(N2CCCCC2)c2nc(N(CCO)CCO)nc(N3CCCCC3)c2n1 [DIPYRIDAMOLE]	Not Active	Not Active	Not Active	Not Active	Not Active	Not Active	Not Active								
Cc1oncc1C(=O)Nc1ccc(C(F)(F)F)cc1 [LEFLUNOMIDE]	Not Active	Not Active	Not Active	Not Active	Not Active	Not Active	Not Active								
c1ccc([C@H]2CN3CCSC3=N2)cc1 [LEVAMISOLE]	Not Active	Not Active	Not Active	Not Active	Not Active	Not Active	Not Active								
N[C@@H](Cc1ccc(O)c(O)c1)C(=O)O [LEVODOPA]	Not Active	Not Active	Not Active	Not Active	Not Active	Not Active	Not Active								
N[C@@H](Cc1cc(I)c(Oc2ccc(O)c(I)c2)c(I)c1)C(=O)O [LIOTHYRONINE]	Not Active	Not Active					Not Active								
O=NN(CCCl)C(=O)NC1CCCCC1 [LOMUSTINE]	Not Active	Not Active	Not Active	Not Active	Not Active	Not Active	Not Active								
CCOC(=O)N1CCC(=C2c3ccc(Cl)cc3CCc3cccnc32)CC1 [LORATADINE]	Not Active	Not Active	Not Active	Not Active	Not Active	Not Active	Not Active								
Cn1ccnc1S [METHIMAZOLE]	Not Active	Not Active	Not Active	Not Active	Not Active	Not Active	Not Active								
CC[C@@H](CO)NC(=O)[C@@H]1C=C2c3cccc4[nH]cc(c34)C[C@H]2N(C)C1 [METHYLERGONOVINE]	Not Active	Not Active	Not Active	Not Active				167	57	2930	1960				
COc1nc(C)nc(Cl)c1NC1=NCCN1 [MOXONIDINE]	Not Active	Not Active	Not Active	Not Active			Not Active			1480	984				
COc1c(C)c2c(c(O)c1C/C=C(\C)CCC(=O)O)C(=O)OC2 [MYCOPHENOLIC ACID]	Not Active	Not Active	Not Active	Not Active	Not Active	Not Active	Not Active								
O=c1ncn2nc(Sc3ccc(F)cc3F)ccc2c1-c1c(Cl)cccc1Cl [NEFLAMAPIMOD]	Not Active	Not Active	Not Active	Not Active	Not Active	Not Active	Not Active								
CN1CCN(CCCN2c3ccccc3Sc3ccc(Cl)cc32)CC1 [PROCHLORPERAZINE]												34	16		
CO[C@H]1/C=C/O[C@@]2(C)Oc3c(C)c(O)c4c(O)c(c(/C=N/N5CCN(C)CC5)c(O)c4c3C2=O)NC(=O)/C(C)=C\C=C\[C@H](C)[C@H](O)[C@@H](C)[C@@H](O)[C@@H](C)[C@H](OC(C)=O)[C@@H]1C [RIFAMPIN]	Not Active	Not Active	Not Active	Not Active	Not Active	Not Active	Not Active								
Nc1nc2ccc(OC(F)(F)F)cc2s1 [RILUZOLE]	Not Active	Not Active	Not Active	Not Active	Not Active	Not Active	Not Active								
Cc1nc2n(c(=O)c1CCN1CCC(c3noc4cc(F)ccc34)CC1)CCCC2 [RISPERIDONE]		Not Active													
C=CCC1(C(C)CCC)C(=O)NC(=O)NC1=O (configuration not stated) [SECOBARBITAL]	Not Active	Not Active	Not Active	Not Active	Not Active	Not Active	Not Active								
C[C@@H]1CN(c2c(F)c(N)c3c(=O)c(C(=O)O)cn(C4CC4)c3c2F)C[C@H](C)N1 [SPARFLOXACIN]	Not Active	Not Active	Not Active	Not Active	Not Active	Not Active	Not Active								
Cc1noc(NS(=O)(=O)c2ccc(N)cc2)c1C [SULFISOXAZOLE]	Not Active	Not Active	Not Active	Not Active	Not Active	Not Active	Not Active								
CSc1ccc(/C=C2/C(C)=C(CC(=O)O)c3cc(F)ccc32)cc1 [SULINDAC SULFIDE]	Not Active	Not Active	Not Active	Not Active	Not Active	Not Active	Not Active								
Nc1c2c(nc3ccccc13)CCCC2 [TACRINE]	Not Active	Not Active	Not Active	Not Active	Not Active	Not Active	Not Active								
CC/C(=C(\c1ccccc1)c1ccc(OCCN(C)C)cc1)c1ccccc1 [TAMOXIFEN]								1070	364			4980	2450		
CC(C)N1CCN(c2ccc(OCC3COC(Cn4cncn4)(c4ccc(Cl)cc4Cl)O3)cc2)CC1 (configuration not stated) [TERCONAZOLE]			Not Active	Not Active				4710	1600	2230	1480	14400	7070	12900	4590
Nc1nc2nc[nH]c2c(=S)[nH]1 [THIOGUANINE]	Not Active	Not Active			Not Active	Not Active	Not Active								
Cc1cccc(N(C)C(=S)Oc2ccc3ccccc3c2)c1 [TOLNAFTATE]	Not Active	Not Active	Not Active	Not Active	Not Active	Not Active	Not Active								
NC[C@H]1CC[C@H](C(=O)O)CC1 [TRANEXAMIC ACID]	Not Active	Not Active	Not Active	Not Active	Not Active	Not Active	Not Active								
